According to PubChem BioAssay AID1963872 (Molecular Pharmacology Branch, DTP, NCI, 2024):
pIC50: −log10 of the molar value.

System: KRAS patient-derived spheroids with HUVEC/MSC, viability
Assay: Anticancer human tumor 519858-162-T-J1-PDC patient-derived colon adenocarcinoma cell line growth inhibition [KRAS2]
Conditions: for pIC50: curve of first compound; for viability, T/C: stronger effect = lower value
Procedure, shortened: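 Combination screen of spheroid viability in tumor-cell co-cultures with endothelial (HUVEC) and mesenchymal stem cell stroma. Each agent was tested in half-log dilutions, topping at clinical Cmax or at 10 microM without a known Cmax.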

[1] = second compound 0.1 µM, first compound 0.0316 µM
[2] = second compound 0.1 µM, first compound 0.1 µM
[3] = second compound 0.1 µM, first compound 0.316 µM
[4] = second compound 0.1 µM, first compound 1 µM
[5] = second compound 0.1 µM, first compound 3.16 µM
[6] = second compound 0.1 µM, first compound 10 µM
[7] = second compound 0.316 µM, first compound 0.0316 µM
[8] = second compound 0.316 µM, first compound 0.1 µM
[9] = second compound 0.316 µM, first compound 0.316 µM
[10] = second compound 0.316 µM, first compound 1 µM
[11] = second compound 0.316 µM, first compound 3.16 µM
[12] = second compound 0.316 µM, first compound 10 µM
[13] = second compound 1 µM, first compound 0.0316 µM
[14] = second compound 1 µM, first compound 0.1 µM
[15] = second compound 1 µM, first compound 0.316 µM
[16] = second compound 1 µM, first compound 1 µM
[17] = second compound 1 µM, first compound 3.16 µM
[18] = second compound 1 µM, first compound 10 µM
[19] = second compound 3.16 µM, first compound 0.0316 µM
[20] = second compound 3.16 µM, first compound 0.1 µM
[21] = second compound 3.16 µM, first compound 0.316 µM
[22] = second compound 3.16 µM, first compound 1 µM
[23] = second compound 3.16 µM, first compound 3.16 µM
[24] = second compound 3.16 µM, first compound 10 µM
[25] = second compound 10 µM, first compound 0.0316 µM
[26] = second compound 10 µM, first compound 0.1 µM
[27] = second compound 10 µM, first compound 0.316 µM
[28] = second compound 10 µM, first compound 1 µM
[29] = second compound 10 µM, first compound 3.16 µM
[30] = second compound 10 µM, first compound 10 µM
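Also: compound exposure lasted seven days before readout.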
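For viability, T/C in this document: 100% = DMSO vehicle control viability.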

Compound	pIC50 (second compound 0.1 µM)	pIC50 (second compound 0.316 µM)	pIC50 (second compound 1 µM)	pIC50 (second compound 3.16 µM)	viability, T/C [1] [%]	viability, T/C [2] [%]	viability, T/C [3] [%]	viability, T/C [4] [%]	viability, T/C [5] [%]	viability, T/C [6] [%]	viability, T/C [7] [%]	viability, T/C [8] [%]	viability, T/C [9] [%]	viability, T/C [10] [%]	viability, T/C [11] [%]	viability, T/C [12] [%]	viability, T/C [13] [%]	viability, T/C [14] [%]	viability, T/C [15] [%]	viability, T/C [16] [%]	also measured
Cn1nccc1Nc1nccc(-c2cc3c(s2)C(C)(C)N(CCN2CCOCC2)C3=O)n1 + CNCc1ccccc1-c1csc(C(C)Nc2nc(C)nc3cc(OC)c(OC)cc23)c1	5.49	5.35	5.96	> 7.50	102	90.2	74.2	63	55.7	33.5	90.3	77.5	68.2	78.5	49.2	39.6	79.5	71	74.3	50.6	pIC50 (second compound 10 µM): > 7.50; viability, T/C [17]: 31.9%; viability, T/C [18]: 25.9%; viability, T/C [19]: 38.9%; viability, T/C [20]: 48%; viability, T/C [21]: 29.8%; viability, T/C [22]: 36.6%; viability, T/C [23]: 20.8%; viability, T/C [24]: 21.2%; viability, T/C [25]: 2.36%; viability, T/C [26]: 0.52%; viability, T/C [27]: 0.35%; viability, T/C [28]: 0.39%; viability, T/C [29]: 0.71%; viability, T/C [30]: 0.65%
CC1(C)CCC(CN2CCN(c3ccc(C(=O)NS(=O)(=O)c4ccc(NCC5CCOCC5)c([N+](=O)[O-])c4)c(Oc4cnc5[nH]ccc5c4)c3)CC2)=C(c2ccc(Cl)cc2)C1 + C=CC(=O)N1CCN(c2nc(OCC3CCCN3C)nc3c2CCN(c2cccc4cccc(C)c24)C3)CC1CC#N	< 5.00	< 5.00	5.46	5.89	94.8	88.8	97	97.3	93.9	72.5	102	87	69.6	106	68.7	57.9	76.8	75.6	87.2	69	pIC50 (second compound 0.0316 µM): 5.06; viability, T/C (second compound 0.0316 µM, first compound 0.0316 µM): 86.4%; viability, T/C (second compound 0.0316 µM, first compound 0.1 µM): 92.8%; viability, T/C (second compound 0.0316 µM, first compound 0.316 µM): 76.3%; viability, T/C (second compound 0.0316 µM, first compound 1 µM): 88.1%; viability, T/C (second compound 0.0316 µM, first compound 3.16 µM): 87.9%; viability, T/C (second compound 0.0316 µM, first compound 10 µM): 45.3%; viability, T/C [17]: 53.4%; viability, T/C [18]: 17.6%; viability, T/C [19]: 83%; viability, T/C [20]: 67%; viability, T/C [21]: 70.6%; viability, T/C [22]: 64.7%; viability, T/C [23]: 0.7%; viability, T/C [24]: 0.42%
CC1(C)CCC(CN2CCN(c3ccc(C(=O)NS(=O)(=O)c4ccc(NCC5CCOCC5)c([N+](=O)[O-])c4)c(Oc4cnc5[nH]ccc5c4)c3)CC2)=C(c2ccc(Cl)cc2)C1 + C=CC(=O)N1CCN(c2nc(=O)n(-c3c(C)ccnc3C(C)C)c3nc(-c4c(O)cccc4F)c(F)cc23)C(C)C1	5.10	< 5.00	< 5.00	< 5.00	83.4	102	88	81.2	91.6	39.9	93.9	89.1	68.6	79.4	92.2	61.5	90.9	73.7	94.7	96.6	pIC50 (second compound 10 µM): < 5.00; viability, T/C [17]: 84.6%; viability, T/C [18]: 65.6%; viability, T/C [19]: 63.3%; viability, T/C [20]: 96.4%; viability, T/C [21]: 81.6%; viability, T/C [22]: 64.1%; viability, T/C [23]: 84.4%; viability, T/C [24]: 61.3%; viability, T/C [25]: 77.8%; viability, T/C [26]: 84.3%; viability, T/C [27]: 58.2%; viability, T/C [28]: 81.9%; viability, T/C [29]: 56.3%; viability, T/C [30]: 70.6%
